Experiments:
Experiment in all cases: KAM-matrix competition in K562 lysate;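 as to 0.001 uM KAM: median log10 fold change of treatment over DMSO control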;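 as to 0.01 uM KAM: median log10 fold change of treatment over DMSO control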;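 as to 0.1 uM KAM: median log10 fold change of treatment over DMSO control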;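 as to 1 uM KAM: median log10 fold change of treatment over DMSO control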;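 as to 10 uM KAM: median log10 fold change of treatment over DMSO control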
Format in all cases: binding
CLK1 = target: T1, CLK1 (Homo sapiens, UniProt P49759)
T1 construct: endogenous in cells; host or cells: K562
T1 sequence (P49759 whole entry): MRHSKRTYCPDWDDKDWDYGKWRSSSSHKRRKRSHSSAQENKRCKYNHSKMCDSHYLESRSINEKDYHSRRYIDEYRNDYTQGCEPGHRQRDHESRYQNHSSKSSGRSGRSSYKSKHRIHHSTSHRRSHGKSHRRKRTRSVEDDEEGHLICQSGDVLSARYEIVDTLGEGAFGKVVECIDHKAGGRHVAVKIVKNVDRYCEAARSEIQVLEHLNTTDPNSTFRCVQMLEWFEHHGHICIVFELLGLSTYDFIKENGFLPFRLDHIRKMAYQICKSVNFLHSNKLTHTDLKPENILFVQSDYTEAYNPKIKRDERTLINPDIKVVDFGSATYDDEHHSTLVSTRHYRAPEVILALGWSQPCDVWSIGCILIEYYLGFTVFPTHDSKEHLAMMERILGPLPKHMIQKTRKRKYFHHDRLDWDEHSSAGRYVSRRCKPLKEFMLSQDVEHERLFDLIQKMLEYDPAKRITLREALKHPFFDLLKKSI
Experimental: (§1) Supplement 12953_2017_125_MOESM1_ESM.zip/MS_Supp Info.xlsx, sheet "KAM" | column: 10 uM KAM; 1 uM KAM; 0.1 uM KAM; 0.01 uM KAM; 0.001 uM KAM; RB50

GUCY2F = target: T2, GUCY2F (Homo sapiens, UniProt P51841);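 as to 0.001 uM KAM: median log10 fold change of treatment over DMSO control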;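 as to 0.01 uM KAM: median log10 fold change of treatment over DMSO control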;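 as to 0.1 uM KAM: median log10 fold change of treatment over DMSO control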;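 as to 1 uM KAM: median log10 fold change of treatment over DMSO control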;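 as to 10 uM KAM: median log10 fold change of treatment over DMSO control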
T2 construct: endogenous in cells; host or cells: K562
T2 sequence (P51841 51-1108): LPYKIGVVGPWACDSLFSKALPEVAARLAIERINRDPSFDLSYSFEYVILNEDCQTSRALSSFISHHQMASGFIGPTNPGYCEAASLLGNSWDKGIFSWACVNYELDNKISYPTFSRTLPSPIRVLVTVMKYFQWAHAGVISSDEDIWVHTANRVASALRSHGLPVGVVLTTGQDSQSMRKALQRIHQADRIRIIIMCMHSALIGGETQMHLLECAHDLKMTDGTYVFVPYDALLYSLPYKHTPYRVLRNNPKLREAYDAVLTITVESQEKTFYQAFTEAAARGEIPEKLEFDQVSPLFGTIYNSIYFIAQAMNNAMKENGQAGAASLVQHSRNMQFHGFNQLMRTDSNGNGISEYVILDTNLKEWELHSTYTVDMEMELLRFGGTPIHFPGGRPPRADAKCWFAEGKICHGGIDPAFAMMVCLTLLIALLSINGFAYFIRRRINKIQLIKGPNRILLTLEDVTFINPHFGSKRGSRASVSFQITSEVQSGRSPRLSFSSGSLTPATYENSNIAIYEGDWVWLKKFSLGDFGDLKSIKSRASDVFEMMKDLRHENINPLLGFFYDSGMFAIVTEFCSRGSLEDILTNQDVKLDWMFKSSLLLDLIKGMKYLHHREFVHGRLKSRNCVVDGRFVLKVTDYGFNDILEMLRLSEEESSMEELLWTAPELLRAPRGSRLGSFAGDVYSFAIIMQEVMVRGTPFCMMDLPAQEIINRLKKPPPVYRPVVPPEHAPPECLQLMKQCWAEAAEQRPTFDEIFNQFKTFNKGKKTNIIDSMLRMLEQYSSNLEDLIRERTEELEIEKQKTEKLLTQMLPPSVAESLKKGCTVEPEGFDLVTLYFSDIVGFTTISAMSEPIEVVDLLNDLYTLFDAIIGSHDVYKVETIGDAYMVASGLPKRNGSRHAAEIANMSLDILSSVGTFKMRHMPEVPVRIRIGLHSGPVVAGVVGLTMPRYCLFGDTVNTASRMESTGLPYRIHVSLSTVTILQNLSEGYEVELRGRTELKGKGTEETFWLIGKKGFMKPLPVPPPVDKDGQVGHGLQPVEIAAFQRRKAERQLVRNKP
Experimental: as §1

RPS6KA5 = target: T3, RPS6KA5 (Homo sapiens, UniProt O75582)
T3 construct: endogenous in cells; host or cells: K562
T3 sequence (O75582 whole entry): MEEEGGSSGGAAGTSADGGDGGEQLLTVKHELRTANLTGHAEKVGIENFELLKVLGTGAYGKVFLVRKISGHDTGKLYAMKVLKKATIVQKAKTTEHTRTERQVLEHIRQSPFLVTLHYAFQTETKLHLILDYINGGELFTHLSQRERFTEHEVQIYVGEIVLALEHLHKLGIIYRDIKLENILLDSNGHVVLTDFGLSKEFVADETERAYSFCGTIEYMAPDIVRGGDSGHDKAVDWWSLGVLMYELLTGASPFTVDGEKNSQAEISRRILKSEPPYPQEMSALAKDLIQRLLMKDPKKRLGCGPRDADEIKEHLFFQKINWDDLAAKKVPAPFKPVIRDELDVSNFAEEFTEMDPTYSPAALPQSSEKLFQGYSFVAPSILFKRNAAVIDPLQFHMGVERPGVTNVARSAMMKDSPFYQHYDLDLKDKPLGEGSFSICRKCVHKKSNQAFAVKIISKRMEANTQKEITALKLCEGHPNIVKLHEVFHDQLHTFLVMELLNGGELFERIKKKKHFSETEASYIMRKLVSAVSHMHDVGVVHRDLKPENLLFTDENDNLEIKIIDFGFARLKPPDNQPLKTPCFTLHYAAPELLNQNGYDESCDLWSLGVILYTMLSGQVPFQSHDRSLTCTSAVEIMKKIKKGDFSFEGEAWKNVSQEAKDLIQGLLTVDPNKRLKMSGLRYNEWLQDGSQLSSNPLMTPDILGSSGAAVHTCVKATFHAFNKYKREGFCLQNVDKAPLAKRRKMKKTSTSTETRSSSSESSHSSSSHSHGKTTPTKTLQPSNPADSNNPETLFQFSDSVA
Experimental: as §1

SMG1 = target: T4, SMG1 (Homo sapiens, UniProt Q96Q15);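 as to 0.001 uM KAM: median log10 fold change of treatment over DMSO control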;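 as to 0.01 uM KAM: median log10 fold change of treatment over DMSO control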;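 as to 0.1 uM KAM: median log10 fold change of treatment over DMSO control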;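 as to 1 uM KAM: median log10 fold change of treatment over DMSO control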;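 as to 10 uM KAM: median log10 fold change of treatment over DMSO control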
T4 construct: endogenous in cells; host or cells: K562
Experimental: as §1

HUNK = target: T5, HUNK (Homo sapiens, UniProt P57058);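 as to 0.001 uM KAM: median log10 fold change of treatment over DMSO control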;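 as to 0.01 uM KAM: median log10 fold change of treatment over DMSO control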;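 as to 0.1 uM KAM: median log10 fold change of treatment over DMSO control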;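 as to 1 uM KAM: median log10 fold change of treatment over DMSO control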;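 as to 10 uM KAM: median log10 fold change of treatment over DMSO control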
T5 construct: endogenous in cells; host or cells: K562
T5 sequence (P57058 1-714): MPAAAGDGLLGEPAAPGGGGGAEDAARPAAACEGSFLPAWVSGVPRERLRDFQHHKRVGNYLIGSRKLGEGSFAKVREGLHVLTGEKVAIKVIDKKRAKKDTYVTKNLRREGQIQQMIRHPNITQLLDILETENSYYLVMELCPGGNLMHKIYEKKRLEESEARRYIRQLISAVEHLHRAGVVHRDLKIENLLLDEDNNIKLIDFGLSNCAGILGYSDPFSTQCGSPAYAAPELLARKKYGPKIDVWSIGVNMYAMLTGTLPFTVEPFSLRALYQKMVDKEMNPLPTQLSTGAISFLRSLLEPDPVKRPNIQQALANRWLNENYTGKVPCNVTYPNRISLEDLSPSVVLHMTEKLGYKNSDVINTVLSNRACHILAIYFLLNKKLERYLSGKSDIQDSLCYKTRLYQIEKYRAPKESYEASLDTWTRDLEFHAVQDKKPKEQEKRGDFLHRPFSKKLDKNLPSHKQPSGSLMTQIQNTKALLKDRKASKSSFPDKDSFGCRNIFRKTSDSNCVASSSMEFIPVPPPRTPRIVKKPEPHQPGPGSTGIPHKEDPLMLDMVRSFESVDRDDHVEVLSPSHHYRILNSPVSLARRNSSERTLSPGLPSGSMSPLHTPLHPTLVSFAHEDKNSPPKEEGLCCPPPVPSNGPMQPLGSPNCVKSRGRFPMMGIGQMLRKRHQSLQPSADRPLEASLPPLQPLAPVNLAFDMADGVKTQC
Experimental: as §1

CAMK1 = target: T6, CAMK1 (Homo sapiens, UniProt Q14012);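 as to 0.001 uM KAM: median log10 fold change of treatment over DMSO control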;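 as to 0.01 uM KAM: median log10 fold change of treatment over DMSO control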;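 as to 0.1 uM KAM: median log10 fold change of treatment over DMSO control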;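 as to 1 uM KAM: median log10 fold change of treatment over DMSO control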;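 as to 10 uM KAM: median log10 fold change of treatment over DMSO control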
T6 construct: endogenous in cells; host or cells: K562
T6 sequence (Q14012 whole entry): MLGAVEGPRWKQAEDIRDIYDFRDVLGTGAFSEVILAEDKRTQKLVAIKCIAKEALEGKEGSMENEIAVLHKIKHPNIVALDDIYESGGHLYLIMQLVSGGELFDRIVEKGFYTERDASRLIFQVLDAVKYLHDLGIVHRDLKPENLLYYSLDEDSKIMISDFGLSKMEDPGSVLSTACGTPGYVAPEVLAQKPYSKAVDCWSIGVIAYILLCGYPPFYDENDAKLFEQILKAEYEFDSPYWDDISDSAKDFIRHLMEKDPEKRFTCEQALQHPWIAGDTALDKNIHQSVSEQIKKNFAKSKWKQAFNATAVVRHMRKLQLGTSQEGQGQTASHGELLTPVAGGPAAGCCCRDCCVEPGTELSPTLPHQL
Experimental: as §1

MAPK6 = target: T7, MAPK6 (Homo sapiens, UniProt Q16659)
T7 construct: endogenous in cells; host or cells: K562
T7 sequence (Q16659 whole entry): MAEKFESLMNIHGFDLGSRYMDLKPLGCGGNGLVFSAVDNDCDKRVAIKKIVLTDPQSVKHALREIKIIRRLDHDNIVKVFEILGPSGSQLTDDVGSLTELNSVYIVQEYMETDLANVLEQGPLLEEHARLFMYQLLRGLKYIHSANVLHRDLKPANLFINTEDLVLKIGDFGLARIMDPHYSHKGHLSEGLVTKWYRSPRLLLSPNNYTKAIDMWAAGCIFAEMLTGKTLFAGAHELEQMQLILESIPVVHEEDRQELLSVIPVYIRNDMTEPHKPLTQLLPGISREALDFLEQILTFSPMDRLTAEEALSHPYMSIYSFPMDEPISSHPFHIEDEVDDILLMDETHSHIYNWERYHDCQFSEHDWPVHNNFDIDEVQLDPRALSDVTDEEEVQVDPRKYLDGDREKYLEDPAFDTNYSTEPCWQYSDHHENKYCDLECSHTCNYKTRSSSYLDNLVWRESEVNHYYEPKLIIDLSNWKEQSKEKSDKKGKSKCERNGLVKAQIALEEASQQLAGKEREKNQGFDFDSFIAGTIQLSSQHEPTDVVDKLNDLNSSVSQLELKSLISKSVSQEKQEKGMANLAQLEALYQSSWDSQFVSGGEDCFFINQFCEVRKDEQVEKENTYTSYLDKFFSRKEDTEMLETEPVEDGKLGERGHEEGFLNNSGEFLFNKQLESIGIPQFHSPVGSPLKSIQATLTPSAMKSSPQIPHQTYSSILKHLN
Experimental: as §1

RET = target: T8, RET (Homo sapiens, UniProt P07949)
T8 construct: endogenous in cells; host or cells: K562
T8 sequence (P07949 29-1114): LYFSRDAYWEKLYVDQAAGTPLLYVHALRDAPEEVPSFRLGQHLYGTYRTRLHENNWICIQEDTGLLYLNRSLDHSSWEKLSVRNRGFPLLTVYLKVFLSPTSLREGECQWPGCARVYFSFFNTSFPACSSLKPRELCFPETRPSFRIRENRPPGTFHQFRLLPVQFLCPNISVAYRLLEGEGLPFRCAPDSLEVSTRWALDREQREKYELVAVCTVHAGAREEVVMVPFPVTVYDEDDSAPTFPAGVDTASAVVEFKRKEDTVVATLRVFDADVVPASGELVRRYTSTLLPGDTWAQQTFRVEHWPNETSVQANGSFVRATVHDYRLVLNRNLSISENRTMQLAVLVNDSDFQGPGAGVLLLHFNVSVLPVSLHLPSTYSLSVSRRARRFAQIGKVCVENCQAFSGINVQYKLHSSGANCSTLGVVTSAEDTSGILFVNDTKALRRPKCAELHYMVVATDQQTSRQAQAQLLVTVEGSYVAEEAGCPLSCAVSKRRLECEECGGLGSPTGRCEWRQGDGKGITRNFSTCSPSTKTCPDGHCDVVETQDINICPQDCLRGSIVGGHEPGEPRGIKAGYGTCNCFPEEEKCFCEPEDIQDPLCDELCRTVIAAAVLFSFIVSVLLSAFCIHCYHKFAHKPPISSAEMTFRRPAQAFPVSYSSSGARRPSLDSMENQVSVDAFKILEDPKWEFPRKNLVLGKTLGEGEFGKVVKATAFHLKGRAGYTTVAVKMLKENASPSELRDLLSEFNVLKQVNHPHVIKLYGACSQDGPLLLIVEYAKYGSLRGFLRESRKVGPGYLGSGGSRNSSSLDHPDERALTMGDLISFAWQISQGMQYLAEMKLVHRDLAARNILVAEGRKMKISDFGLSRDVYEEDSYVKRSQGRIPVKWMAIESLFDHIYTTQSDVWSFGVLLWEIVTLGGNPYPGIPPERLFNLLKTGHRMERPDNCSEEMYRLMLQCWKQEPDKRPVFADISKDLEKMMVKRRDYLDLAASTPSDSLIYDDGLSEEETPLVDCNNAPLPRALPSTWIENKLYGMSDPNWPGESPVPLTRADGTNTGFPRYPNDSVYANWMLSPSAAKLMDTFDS
Experimental: as §1

[1] = read-out: RB50 (the source's name)
[2] = KAM 0.001-10 uM, read-out: RB50 (the source's name)

N#CCc1ccc(Nc2nc(NCCCN)cc(Nc3cc(C4CC4)[nH]n3)n2)cc1 [KAM]
median Log10 fold change (CLK1; 0.001 uM KAM): 0.02063
median Log10 fold change (CLK1; 0.01 uM KAM): -0.05735
median Log10 fold change (CLK1; 0.1 uM KAM): -0.2418
median Log10 fold change (CLK1; 1 uM KAM): -0.3053
median Log10 fold change (CLK1; 10 uM KAM): -0.4001
IC50 (CLK1; [1]): 858 nM
IC50 (GUCY2F; [2]): > 10 µM
0.001 uM KAM (GUCY2F; relative to 0 uM KAM = 0): -0.02463
0.01 uM KAM (GUCY2F; relative to 0 uM KAM = 0): -0.02113
0.1 uM KAM (GUCY2F; relative to 0 uM KAM = 0): 0.03818
1 uM KAM (GUCY2F; relative to 0 uM KAM = 0): 0.1179
10 uM KAM (GUCY2F; relative to 0 uM KAM = 0): -0.02163
median Log10 fold change (RPS6KA5; 0.001 uM KAM): 0.02456
median Log10 fold change (RPS6KA5; 0.01 uM KAM): -0.007608
median Log10 fold change (RPS6KA5; 0.1 uM KAM): -0.1303
median Log10 fold change (RPS6KA5; 1 uM KAM): -0.3238
median Log10 fold change (RPS6KA5; 10 uM KAM): -0.3743
IC50 (RPS6KA5; [1]): 1190 nM
IC50 (SMG1; [2]): > 10 µM
0.001 uM KAM (SMG1; relative to 0 uM KAM = 0): -0.09325
0.01 uM KAM (SMG1; relative to 0 uM KAM = 0): 0.027
0.1 uM KAM (SMG1; relative to 0 uM KAM = 0): 0.0044
1 uM KAM (SMG1; relative to 0 uM KAM = 0): 0.06163
10 uM KAM (SMG1; relative to 0 uM KAM = 0): 0.05027
IC50 (HUNK; [2]): > 10 µM
0.001 uM KAM (HUNK; relative to 0 uM KAM = 0): 0.08544
0.01 uM KAM (HUNK; relative to 0 uM KAM = 0): 0.04291
0.1 uM KAM (HUNK; relative to 0 uM KAM = 0): 0.1545
1 uM KAM (HUNK; relative to 0 uM KAM = 0): 0.0644
10 uM KAM (HUNK; relative to 0 uM KAM = 0): 0.1031
IC50 (CAMK1; [2]): 6.47 µM
0.001 uM KAM (CAMK1; relative to 0 uM KAM = 0): -0.0406
0.01 uM KAM (CAMK1; relative to 0 uM KAM = 0): 0.01937
0.1 uM KAM (CAMK1; relative to 0 uM KAM = 0): -0.06624
1 uM KAM (CAMK1; relative to 0 uM KAM = 0): -0.1636
10 uM KAM (CAMK1; relative to 0 uM KAM = 0): -0.3114
median Log10 fold change (MAPK6; 0.001 uM KAM): 0.01888
median Log10 fold change (MAPK6; 0.01 uM KAM): 0.003428
median Log10 fold change (MAPK6; 0.1 uM KAM): -0.1658
median Log10 fold change (MAPK6; 1 uM KAM): -0.3554
median Log10 fold change (MAPK6; 10 uM KAM): -0.4572
IC50 (MAPK6; [1]): 763 nM
median Log10 fold change (RET; 0.001 uM KAM): -0.129
median Log10 fold change (RET; 0.01 uM KAM): -0.007083
median Log10 fold change (RET; 0.1 uM KAM): -0.09548
median Log10 fold change (RET; 1 uM KAM): -0.3474
median Log10 fold change (RET; 10 uM KAM): -0.5381
IC50 (RET; [1]): 908 nM

— PMC5513037, “Examining the influence of specificity ligands and ATP-competitive ligands on the overall effectiveness of bivalent kinase inhibitors” (Proteome Science, 2017)
